Reference: patent publication US11524966B1 (Valo Early Discovery, Inc., priority 2017, dated 2022)

target: T1, USP25 (USP25-His6, Boston Biochem E-546) (Homo sapiens, UniProt Q9UHP3); assay: Ubiquitin-Rhodamine 110 Assay for USP25 Activity, Example A-2; type: biochemical; conditions: Ubiquitin-Rhodamine 110 assay, Example A-2; read-out: USP25 A-2 IC50 range
T1 construct: His6; purchased Boston Biochem E-546
T1 sequence (Q9UHP3 1-1055): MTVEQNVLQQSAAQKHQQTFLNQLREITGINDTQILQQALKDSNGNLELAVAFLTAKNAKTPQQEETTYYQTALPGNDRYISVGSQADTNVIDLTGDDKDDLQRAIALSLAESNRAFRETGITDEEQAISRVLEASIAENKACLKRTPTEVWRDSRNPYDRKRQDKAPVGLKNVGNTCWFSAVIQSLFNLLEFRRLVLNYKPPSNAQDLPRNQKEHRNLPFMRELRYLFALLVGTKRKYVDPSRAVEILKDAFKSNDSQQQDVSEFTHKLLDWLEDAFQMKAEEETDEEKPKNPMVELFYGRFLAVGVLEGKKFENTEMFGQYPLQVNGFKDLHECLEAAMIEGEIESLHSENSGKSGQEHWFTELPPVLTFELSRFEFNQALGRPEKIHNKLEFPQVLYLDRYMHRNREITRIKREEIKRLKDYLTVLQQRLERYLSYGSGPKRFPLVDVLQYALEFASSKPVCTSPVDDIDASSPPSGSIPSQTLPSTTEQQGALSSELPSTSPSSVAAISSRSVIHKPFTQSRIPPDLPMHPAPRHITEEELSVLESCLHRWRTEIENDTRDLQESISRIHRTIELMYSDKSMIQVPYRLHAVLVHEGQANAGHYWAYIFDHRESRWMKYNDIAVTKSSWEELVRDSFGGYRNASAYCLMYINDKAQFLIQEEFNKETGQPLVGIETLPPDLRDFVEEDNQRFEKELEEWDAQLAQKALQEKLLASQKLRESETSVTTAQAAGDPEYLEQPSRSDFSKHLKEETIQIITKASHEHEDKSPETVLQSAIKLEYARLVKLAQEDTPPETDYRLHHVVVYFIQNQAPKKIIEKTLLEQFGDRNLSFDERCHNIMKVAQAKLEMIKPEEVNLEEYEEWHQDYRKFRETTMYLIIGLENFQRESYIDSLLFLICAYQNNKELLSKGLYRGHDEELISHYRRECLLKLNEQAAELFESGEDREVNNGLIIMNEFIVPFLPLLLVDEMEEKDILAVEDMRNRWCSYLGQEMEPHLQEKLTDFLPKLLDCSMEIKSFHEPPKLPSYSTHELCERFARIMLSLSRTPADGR
How it was run: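 75 pM USP25-His6 was preincubated 30 min with compound (10-point 3-fold series, 25 μM–1.3 nM) in pH 8.0 Tris buffer with BME, BGG and Triton X-100. Then 25 nM Ub-Rh110 (<<Km) was added for 45 min at room temperature, stopped with citric acid, fluorescence read at 485/535 nm, IC50 by 4-parameter fit.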

| SMILES | IC50 [nM] |
| --- | --- |
| CO[C@H]1CN(c2cc3c(cc2F)C[C@@H](NC(=O)c2sc4nc(C)ccc4c2N)CO3)C[C@@H]1N [Example 94, 3-amino-N-[(3R)-7-[(3S,4S)-3-amino-4-methoxypyrrolidin-1-yl]-6-fluoro-3,4-dihydro-2H-1-benzopyran-3-yl]-6-methylthieno[2,3-b]pyridine-2-carboxamide] | 200 to 2000 |
| Cc1ccc2c(N)c(C(=O)N[C@H]3COc4c(C#N)c(N5CC6CCC(C5)N6)cc(F)c4C3)sc2n1 [Example 95, 3-amino-N-[(3R)-8-cyano-7-{3,8-diazabicyclo[3.2.1]octan-3-yl}-5-fluoro-3,4-dihydro-2H-1-benzopyran-3-yl]-6-methylthieno[2,3-b]pyridine-2-carboxamide] | 200 to 2000 |
| Cc1ccc2c(N)c(C(=O)N[C@H]3COc4c(C#N)c(N5CC6CNCC(C5)O6)cc(F)c4C3)sc2n1 [Example 96, 3-amino-N-[(3R)-8-cyano-5-fluoro-7-{9-oxa-3,7-diazabicyclo[3.3.1]nonan-3-yl}-3,4-dihydro-2H-1-benzopyran-3-yl]-6-methylthieno[2,3-b]pyridine-2-carboxamide] | 50 to 200 |
| Cc1cnc2c(N)c(C(=O)N[C@H]3COc4cc(N5CC6CCC(C5)N6)c(F)c(F)c4C3)sc2n1 [Example 97, 7-amino-N-[(3R)-7-{3,8-diazabicyclo[3.2.1]octan-3-yl]-5,6-difluoro-3,4-dihydro-2H-1-benzopyran-3-yl]-3-methylthieno[2,3-b]pyrazine-6-carboxamide] | 1 to 50 |
| Cc1nc2sc(C(=O)N[C@H]3COc4c(F)c(N5CC6CCC(C5)N6)cc(F)c4C3)c(N)c2s1 [Example 98, 6-amino-N-[(3R)-7-{3,8-diazabicyclo[3.2.1]octan-3-yl}-5,8-difluoro-3,4-dihydro-2H-1-benzopyran-3-yl]-2-methylthieno[2,3-d][1, 3]thiazole-5-carboxamide] | 50 to 200 |
| Cc1ccc2c(N)c(C(=O)N[C@H]3CCc4c(ccc(N5CC6CNCC(C5)O6)c4F)C3)sc2n1 [Example 99, 3-amino-N-[(2S)-5-fluoro-6-{9-oxa-3,7-diazabicyclo[3.3.1]nonan-3-yl}-1,2,3,4-tetrahydronaphthalen-2-yl]-6-methylthieno[2,3-b]pyridine-2-carboxamide] | 1 to 50 |
| Cc1ccc2c(N)c(C(=O)N[C@@H]3CCc4c(ccc(N5CC6CNCC(C5)O6)c4F)C3)sc2n1 [Example 100, 3-amino-N-[(2R)-5-fluoro-6-{9-oxa-3,7-diazabicyclo[3.3.1]nonan-3-yl}-1,2,3,4-tetrahydronaphthalen-2-yl]-6-methylthieno[2,3-b]pyridine-2-carboxamide] | > 2000 |
| Cc1ccc2c(N)c(C(=O)N[C@H]3CCc4cc(N5CC6CNCC(C5)O6)c(F)cc4C3)sc2n1 [Example 101, 3-amino-N-[(2S)-7-fluoro-6-{9-oxa-3,7-diazabicyclo[3.3.1]nonan-3-yl}-1,2,3,4-tetrahydronaphthalen-2-yl]-6-methylthieno[2,3-b]pyridine-2-carboxamide] | 200 to 2000 |
| Cc1ccc2c(N)c(C(=O)N[C@H]3CCc4c(ccc(N5CC6CNCC(C5)O6)c4C#N)C3)sc2n1 [Example 102, 3-amino-N-[(2S)-5-cyano-6-{9-oxa-3,7-diazabicyclo[3.3.1]nonan-3-yl}-1,2,3,4-tetrahydronaphthalen-2-yl]-6-methylthieno[2,3-b]pyridine-2-carboxamide] | 50 to 200 |
| Cc1ccc2c(N)c(C(=O)N[C@H]3COc4c(ccc(N5CC6CCC(C5)N6)c4F)C3)sc2n1 [Example 103, 3-amino-N-[(3R)-7-{3,8-diazabicyclo[3.2.1]octan-3-yl}-8-fluoro-3,4-dihydro-2H-1-benzopyran-3-yl]-6-methylthieno[2,3-b]pyridine-2-carboxamide] | 50 to 200 |
| Cc1ccc2c(N)c(C(=O)N[C@H]3COc4cc(N5CC6CCC(C5)N6)c(F)cc4C3)sc2n1 [Example 104, 3-amino-N-[(3R)-7-{3,8-diazabicyclo[3.2.1]octan-3-yl]-6-fluoro-3,4-dihydro-2H-1-benzopyran-3-yl]-6-methylthieno[2,3-b]pyridine-2-carboxamide] | 1 to 50 |
| Cc1ccc2c(N)c(C(=O)N[C@H]3COc4c(ccc(N5CC6CNCC(C5)O6)c4F)C3)sc2n1 [Example 105, 3-amino-N-[(3R)-8-fluoro-7-{9-oxa-3,7-diazabicyclo[3.3.1]nonan-3-yl}-3,4-dihydro-2H-1-benzopyran-3-yl]-6-methylthieno[2,3-b]pyridine-2-carboxamide] | 1 to 50 |
| Cc1ccc2c(N)c(C(=O)N[C@H]3COc4cc(N5CC6CNCC(C5)O6)c(F)cc4C3)sc2n1 [Example 106, 3-amino-N-[(3R)-6-fluoro-7-{9-oxa-3,7-diazabicyclo[3.3.1]nonan-3-yl}-3,4-dihydro-2H-1-benzopyran-3-yl]-6-methylthieno[2,3-b]pyridine-2-carboxamide] | 50 to 200 |
| Cc1cnc2c(N)c(C(=O)N[C@H]3COc4c(F)c(N5CC6CCC(C5)N6)cc(F)c4C3)sc2n1 [Example 107, 7-amino-N-[(3R)-7-{3,8-diazabicyclo[3.2.1]octan-3-yl}-5,8-difluoro-3,4-dihydro-2H-1-benzopyran-3-yl]-3-methylthieno[2,3-b]pyrazine-6-carboxamide] | 1 to 50 |
| Cc1nc2sc(C(=O)N[C@H]3COc4cc(N5CC6CCC(C5)N6)c(F)c(F)c4C3)c(N)c2s1 [Example 108, 6-amino-N-[(3R)-7-{3,8-diazabicyclo[3.2.1]octan-3-yl}-5,6-difluoro-3,4-dihydro-2H-1-benzopyran-3-yl]-2-methylthieno[2,3-d][1,3]thiazole-5-carboxamide] | 50 to 200 |
| Cc1ccc2c(N)c(C(=O)N[C@H]3CCc4cc(N5CC6CNCC(C5)O6)c(C#N)cc4C3)sc2n1 [Example 109, 3-amino-N-[(2S)-7-cyano-6-{9-oxa-3,7-diazabicyclo[3.3.1]nonan-3-yl}-1,2,3,4-tetrahydronaphthalen-2-yl]-6-methylthieno[2,3-b]pyridine-2-carboxamide] | 200 to 2000 |
| Cc1ccc2c(N)c(C(=O)N[C@H]3COc4c(F)c(N5C[C@@H]6C[C@H]5CN6)cc(F)c4C3)sc2n1 [Example 110, 3-amino-N-[(3R)-7-[(1S,4S)-2,5-diazabicyclo[2.2.1]heptan-2-yl]-5,8-difluoro-3,4-dihydro-2H-1-benzopyran-3-yl]-6-methylthieno[2,3-b]pyridine-2-carboxamide] | 50 to 200 |
| Cc1ccc2c(N)c(C(=O)N[C@H]3COc4c(F)c(N5C[C@H]6C[C@@H]5CN6)cc(F)c4C3)sc2n1 [Example 111, 3-amino-N-[(3R)-7-[(1R,4R)-2,5-diazabicyclo[2.2.1]heptan-2-yl]-5,8-difluoro-3,4-dihydro-2H-1-benzopyran-3-yl]-6-methylthieno[2,3-b]pyridine-2-carboxamide] | 50 to 200 |
| Cc1ccc2c(N)c(C(=O)N[C@H]3COc4cc(N5C[C@@H]6C[C@H]5CN6)c(F)c(F)c4C3)sc2n1 [Example 112, 3-amino-N-[(3R)-7-[(1S,4S)-2,5-diazabicyclo[2.2.1]heptan-2-yl]-5,6-difluoro-3,4-dihydro-2H-1-benzopyran-3-yl]-6-methylthieno[2,3-b]pyridine-2-carboxamide] | 200 to 2000 |
| Cc1ccc2c(N)c(C(=O)N[C@H]3COc4nc(N5CC6CNCC(C5)C6(F)F)ccc4C3)sc2n1 [Example 113, 3-amino-N-[(3R)-7-{9 9-difluoro-3,7-diazabicyclo[3.3.1]nonan-3-yl}-2H b,3H,4H-pyrano[2,3-b]pyridin-3-yl]-6-methylthieno[2,3-b]pyridine-2-carboxamide] | 200 to 2000 |
| CCO[C@H]1CN(c2ccc3c(c2)OC[C@H](NC(=O)c2sc4nc(C)ccc4c2N)C3)C[C@@H]1N [Example 115, 3-amino-N-[(3R)-7-[(3S,4S)-3-amino-4-ethoxypyrrolidin-1-yl]-3,4-dihydro-2H-1-benzopyran-3-yl]-6-methylthieno[2,3-b]pyridine-2-carboxamide] | 200 to 2000 |
| CO[C@H]1CN(c2ccc3c(c2)CC[C@H](NC(=O)c2sc4nc(C)ccc4c2N)C3)C[C@@H]1N [Example 116, 3-amino-N-[(2S)-6-[(3S,4S)-3-amino-4-methoxypyrrolidin-1-yl}-1,2,3,4-tetrahydronaphthalen-2-yl]-6-methylthieno[2,3-b]pyridine-2-carboxamide] | 200 to 2000 |
